Article PMC3578765 (PLoS Neglected Tropical Diseases, 2013)
Entries after “also recorded” stand apart in the source; their conditions may differ. Read-outs that look alike come from different tables or passages of the source.

Columns and labels:
[1] = test system: DENV1, DENV2, DENV3 and DENV4 infection in Huh-7.5; test: image-based dengue HT/HCA, all four serotypes (primary screening and overall activity); type: cell-based, Dengue virus
Description: (§1) An immunofluorescence assay (IFA) used to detect dengue infection was optimized for the dengue HT/HCA. Briefly, cells were fixed with 4% (w/v) paraformaldehyde (PFA) for 20 min at room temperature (Rm T). PFA-fixed cells were treated with 0.25% (v/v) Triton-X for 20 min at Rm T. DENV-infected cells were detected by probing with 4G2 mAb prepared in blocking buffer: DPBS containing 5% FBS for 30 min at 37°C, followed by AlexaFluor-conjugated goat anti-mouse IgG (H+L) (Invitrogen Molecular Probes, USA) prepared in blocking buffer for 30 min at 37°C. Cell nuclei counterstained with 5 µg/mL 4′,6-diamidino-2-phenylindole (DAPI, Sigma-Aldrich, USA). Two washing cycles of DPBS was done after each step of the IFA. After the final washing, digital images were acquired using a high-throughput confocal fluorescence imaging system (Evotec Technologies High-Throughput Cell Analyzer Opera, Perkin Elmer, USA). The digital images were taken from 3 different fields of each well at 20× magnification.
Acquired images were analyzed using our in-house developed image-mining platform (IM). This platform is designed to do high-content screening and directly access the database of images that were sequentially analyzed with specially designed algorithms developed as a customized plug-in to the IM platform. The results of all the analyses were stored in a centralized database. […]
The BioFocus kinase inhibitor library were screened against DENV1, DEN2, DENV3 and DENV4 at 10 µM in 0.5% (v/v) DMSO. […] Compound activity based on percent inhibition and cell toxicity was assessed by IFA and IM analysis as described above. […]
(§2) The calculated activity was normalized to a percent inhibition (PI) based on the MOCK-infected cells (100% activity, or zero infection) and dengue-infected cells (0% activity, or maximum measured infection percentage) controls according to the formula: [drawing 1] where: PImeasured - percent inhibition of test compound […]

[2] = test system: DENV4 (DEN4 TVP-360) infection in Huh-7.5; test: image-based dengue HT/HCA, 10-pt dose-response hit confirmation, DENV4; type: cell-based; settings: Dengue virus, DENV4, Huh7.5; Huh-7.5, M.O.I. 0.5, 96 hrs; read-out: EC50 DENV4
Description: as §1
(§3) Acquired images were analyzed using our in-house developed image-mining platform (IM). This platform is designed to do high-content screening and directly access the database of images that were sequentially analyzed with specially designed algorithms developed as a customized plug-in to the IM platform. The results of all the analyses were stored in a centralized database. […] One channel (DAPI-channel) captures the signal emitted by DAPI-stained nuclei at 450 nm, while the other channel (A488-channel) captures the signal emitted by the AlexaFluor 488 dye bound to the dengue E protein-antibody complexes confined in the cytoplasm of dengue-infected cells at 540 nm. To define the percentage of dengue-infected cells and, conversely the non-infected cells, a modified watershed method was applied. Compared to the original watershed algorithm that uses the morphological gradient image, a weighted gradient image is used for the topographic surface, whose weights are defined as the ridge values computed from the eigen values of the original image. The percentage of non-infected cells, which is also defined as the percent inhibition or percent activity, is derived by using the formula: [1−(A488-positive cells/total cells)]×100%.
(§4) The BioFocus kinase inhibitor library were screened against DENV1, DEN2, DENV3 and DENV4 at 10 µM in 0.5% (v/v) DMSO. MOCK-infected Huh-7.5 and IFN-α2A (500 U/mL) were used as positive controls, and the 0.5% DMSO vehicle was used as negative control. Four sets of 15 384-well plates (13 plates designated for test compounds and 2 plates designated for DMSO vehicle control) were used for the primary screening of the BioFocus kinase inhibitor library against each dengue serotype. Each of the 4,000 compounds in the library was tested in single wells. For data normalization and quality control of the screening, each test compound plate contained 16 replicates of the positive and negative controls. After dispensing the test compounds IFN-α2A and DMSO vehicle in the 384-well plates, Huh-7.5 was mixed with DENV1, DENV2, DENV3, or DENV4 to achieve a M.O.I. of 0.5 and dispensed at 5×10^3 cells/well using the Thermo Scientific WellMate automated liquid dispenser. For the MOCK-infected Huh-7.5, the cells were mixed with VM and dispensed under the same conditions as previously stated. Virus infection in the presence of the compounds proceeded at 37°C, 5% CO2 for 96 hrs. Compound activity based on percent inhibition and cell toxicity was assessed by IFA and IM analysis as described above. Scatter-plot distribution of the entire screening was generated using TIBCO Spotfire 4.5.0 (TIBCO Software Inc., Somerville, MA).
as §2

[3] = test system: DENV3 (BR DEN3 290-02) infection in Huh-7.5; test: image-based dengue HT/HCA, 10-pt dose-response hit confirmation, DENV3; type: cell-based; settings: Dengue virus, DENV3, Huh7.5; Huh-7.5, M.O.I. 0.5, 96 hrs; read-out: EC50 DENV3
Description: as §1, §3, §4, §2

[4] = compound toxicity, resazurin reduction assay in uninfected Huh-7.5; type: cell-based; settings: human, uninfected Huh-7.5 cells, Huh-7.5 without viral infection, 10-pt DRC
Description: The hits identified from the primary screening were also tested at 10 µM against CHIKV-118-GFP infection in HuH-7 cells and evaluated by resazurin reduction assay (RRA). Resazurin (7-Hydroxy-3H-phenoxazin-3-one 10-oxide) is reduced to the red fluorescent resorufin by redox enzymes produced by viable cells, and is a good indication of metabolic capacity, and by extension cell viability. The amount of converted resorufin was measured as relative fluorescence readout (RFU) at excitation/emission of 531/572 nm using a fluorescence spectrophotometer (Victor^3 V Spectrophotometer, Perkin Elmer, USA). Briefly, cells were inoculated with CHIKV-118-GFP at an M.O.I. of 0.5 and seeded in 384-well plates containing reference and primary hit compounds and incubated under humidified conditions for 72 hrs at 37°C. Resazurin solution was added to a final concentration of 10 µM and further incubated for another 12 hrs prior to measurement of RFU. The percent activity of the compounds, reflected by the percent cell viability, was quantified by normalizing against the RFUs of MOCK-infected cells and CHIKV-118-GFP-infected cells. Compounds resulting in normalized RFU ≥70% were considered as positive hits for anti-CHIKV activity.
To confirm the compound activity against dengue viruses, the selected hits from the primary screening were tested in a 10-pt. DRC (2-fold serial dilution from 50 µM) using the same assay described for the dengue HT/HCA. Each concentration of the hit compounds was tested in duplicate wells. Data generated from image analysis of the 10-pt. DRC was plotted and analyzed using the non-linear regression formula: log (inhibitor) vs. response – […] (4 parameters) in GraphPad Prism 5.04. […] Compound toxicity was determined by testing the hit compounds in a 10-pt. DRC against Huh-7.5 in the absence of viral infection and measuring the cell viability using resazurin reduction assay as described above. […] Confirmed hits were selected based on their Selectivity Index (SI), a dimensionless value that indicates the magnitude between cytotoxic concentration and effective concentration, and is calculated as: SI = CC50/EC50.

[5] = test system: DENV2 (BR DEN2 01-01) infection in Huh-7.5; test: image-based dengue HT/HCA, 10-pt dose-response hit confirmation, DENV2; type: cell-based; settings: Dengue virus, DENV2, Huh7.5; Huh-7.5, M.O.I. 0.5, 96 hrs; read-out: EC50 DENV2
Description: as §1, §3, §4, §2

[6] = test system: DENV1 (Den1 BR/90) infection in Huh-7.5; test: image-based dengue HT/HCA, 10-pt dose-response hit confirmation, DENV1; type: cell-based; settings: Dengue virus, read-out: EC50 DENV1
Description: as §1, §3, §4, §2

[7] = test system: dengue virus infection (M.O.I. 5) in Huh-7.5; test: time-of-addition assay; type: cell-based; settings: 25 µM added at −2, 0, 0.5, 1, 2, 4 hpi, M.O.I. 5, data not shown
Description: Time-of-addition assay, a strategy to determine the stage of inhibition during the viral infection cycle, has been used to characterize the mode of action of some inhibitors of dengue viral entry (NITD Compound 6), viral replication (NITD-982) and early translation (NITD-2636), [47], [53]. The inhibitor is added at different time points during viral infection and monitored for expression of the viral proteins, replication of the genome or production of infectious progeny virions. […] Compound CND1203 was used for the time-of-addition assay, adding 25 µM at different time points (−2 hpi, 0 hpi, 0.5 hpi, 1 hpi, 2 hpi, 4 hpi) of the dengue virus infection (M.O.I. 5) in Huh-7.5. […] Aminothiazole-based compounds have previously been implicated in the inhibition of HCV replication by binding to an allosteric site on the viral polymerase. However, the structure of these active anti-HCV compounds differ from the 2-aminothiazole hit compounds reported in this study in terms of the substitutions on the scaffold. As a consequence, it is unlikely that our hit compounds interact with the viral polymerase.

[8] = test system: DENV1, DENV2, DENV3 and DENV4 in Huh-7.5; test: plaque reduction assay; type: cell-based, Dengue virus; settings: 25 µM, Huh-7.5, 30 pfu per well, 7 days
Description: Figure 5 Plaque reduction assay. Huh-7.5 cells grown in 24-well tissue culture plate were inoculated with 30 pfu DENV1, DENV2, DENV3 and DENV4 per well and incubated for 7 days in the presence of compound CND1203 at various concentrations. MOCK-infected wells were inoculated with VM only.

[9] = in vitro; settings: human
Description: Acquired images were analyzed using our in-house developed image-mining platform (IM). This platform is designed to do high-content screening and directly access the database of images that were sequentially analyzed with specially designed algorithms developed as a customized plug-in to the IM platform. The results of all the analyses were stored in a centralized database. […] To define the percentage of dengue-infected cells and, conversely the non-infected cells, a modified watershed method was applied. Compared to the original watershed algorithm that uses the morphological gradient image, a weighted gradient image is used for the topographic surface, whose weights are defined as the ridge values computed from the eigen values of the original image. The percentage of non-infected cells, which is also defined as the percent inhibition or percent activity, is derived by using the formula: [1−(A488-positive cells/total cells)]×100%.
In both validation experiments, Huh-7.5 was mixed with DENV1, DENV2, DENV3 or DENV4 at a M.O.I. of 0.5 or VM only for MOCK-infection and dispensed in designated wells using the Thermo Scientific WellMate automated liquid dispenser. For the first validation experiment, the statistical reliability of the dengue HT/HCA was determined by calculating the Z'-factor for the percent infection or percent inhibition. Briefly, the Z'-factor of a defined parameter is calculated using the formula: 1−[(3σp+3σn)/(|μp−μn|)], where the μp, μn, σp and σn are the means (μ) and standard deviations (σ) of the positive (p) and negative (n) controls. For the second validation experiment, the reference compounds were prepared in 2-fold serial dilutions and dispensed in duplicate wells in the 384-well plate, followed by the Huh-7.5 and DENV mixture (M.O.I. 0.5). Percent infection, percent inhibition, and percent cell number were determined using the customized IM platform plug-in. Scatter-plot distribution was generated using TIBCO Spotfire 4.5.0 (TIBCO Software Inc., Somerville, MA). […] The top and bottom values of the reference compounds were unconstrained when the curve fittings of the 10-pt. DRCs were generated.
Similarly, the percent cell number was normalized based on the measured cell number in MOCK-infected (100% cell number) controls according to the formula: % cell number = (Cmeasured/μCMOCK-infect)×100%, where Cmeasured is the measured cell number in the test well and μCMOCK-infect is the average cell number in the MOCK-infected controls. The statistical validity of the dengue high-throughput screening was determined by calculating for the Z'-factor using the 0.5% DMSO-treatment and MOCK-infected Huh-7.5 as negative and positive controls, respectively. In addition, other parameters, including DRC of a reference compound, were used to evaluate the assay performance.

[10] = test system: BR DEN2 01-01 infection of Huh-7.5; test: assay validation with reference compounds, 10-pt DRC of percent infection; type: cell-based, Dengue virus; settings: Dengue virus, Huh7.5; percent infection normalized against DENV2-infected Huh-7.5, M.O.I. 0.5; read-out: IC50
Description: as §1, §3
In both validation experiments, Huh-7.5 was mixed with DENV1, DENV2, DENV3 or DENV4 at a M.O.I. of 0.5 or VM only for MOCK-infection and dispensed in designated wells using the Thermo Scientific WellMate automated liquid dispenser. For the first validation experiment, the statistical reliability of the dengue HT/HCA was determined by calculating the Z'-factor for the percent infection or percent inhibition. Briefly, the Z'-factor of a defined parameter is calculated using the formula: 1−[(3σp+3σn)/(|μp−μn|)], where the μp, μn, σp and σn are the means (μ) and standard deviations (σ) of the positive (p) and negative (n) controls. For the second validation experiment, the reference compounds were prepared in 2-fold serial dilutions and dispensed in duplicate wells in the 384-well plate, followed by the Huh-7.5 and DENV mixture (M.O.I. 0.5). Percent infection, percent inhibition, and percent cell number were determined using the customized IM platform plug-in. Scatter-plot distribution was generated using TIBCO Spotfire 4.5.0 (TIBCO Software Inc., Somerville, MA). The ten-point dose-response curves (10-pt DRCs) were plotted using the non-linear regression formula: log (inhibitor) vs. response – variable slope (4 parameters), available in GraphPad Prism 5.04 (GraphPad Software Inc., San Diego, CA). The top and bottom values of the reference compounds were unconstrained when the curve fittings of the 10-pt. DRCs were generated.

[11] = DENV1, Huh7.5, Huh-7.5, M.O.I. 0.5, 96 hrs

| Structure (SMILES) | antiviral activity against all four dengue serotypes [1] | EC50 [2] [µM] | EC50 [3] [µM] | CC50 at 72 h [4] [µM] | EC50 [5] [µM] | EC50 [6, 11] [µM] | inhibition of dengue infection in time-of-addition assay [7] | formation of dengue virus plaques [8] | EC50 ([6]; Huh7.5, 96 h) [µM] | CC50 [9] [µM] | IC50 [10] [µM] |
| --- | --- | --- | --- | --- | --- | --- | --- | --- | --- | --- | --- |
| COc1ccc(CC(N)c2csc(Nc3ncccn3)n2)cc1 (stereo not shown) [CND1201] | strong antiviral activities against all four dengue serotypes | 5 | 2.6 | > 100 | 7.6 | 0.9 | – | – | – | – | – |
| NC(c1csc(Nc2ncccn2)n1)c1ccccc1Cl (stereo not shown) [CND1203] | strong antiviral activities against all four dengue serotypes; also recorded: strong antiviral activity against all 4 dengue serotypes | 5 | 2.3 | > 100 | 4.1 | 1.7 | none of the treatments inhibited dengue infection | blocked the formation of dengue virus plaques | – | – | – |
| Nc1ccc(CC(N)c2csc(Nc3ncccn3)n2)cc1 (stereo not shown) [CND1243] | strong antiviral activities against all four dengue serotypes | 7.2 | 1 | > 100 | 6.2 | – | – | – | 4.1 | – | – |
| NC(=O)c1ncn([C@@H]2O[C@H](CO)[C@@H](O)[C@H]2O)n1 [Ribavirin] | – | – | – | – | – | – | – | – | – | 50.4 | 42.4 |
